Laboratory results as given in patent US12174198B2, “Methods of characterizing condensate-associated characteristics of compounds and uses thereof” (Dewpoint Therapeutics, Inc., priority 2019, dated 2024).

Experiments:
Format in all cases: physicochemical
[1] = biological target: T1, PGL-3 condensates (Caenorhabditis elegans, UniProt G5EBV6); assay: Fluorescence imaging of dye partitioning in PGL-3 condensates (I-in, I-out); settings: for Ratio of intensity inside:outside PGL-3 Condensates Day 1 / Ratio of intensity inside:outside PGL-3 Condensates Day 2 / Ratio of intensity inside:outside PGL-3 Condensates Average: I-in:I-out; for Ratio of intensity inside:outside PGL-3 Condensates Day 1 / Ratio of intensity inside:outside PGL-3 Condensates Day 2 / Ratio of intensity inside:outside PGL-3 Condensates Average / Intensity Inside with Dye Average / Intensity Inside with Dye 1 / Intensity Inside with Dye 2 / Intensity Inside with Dye 3 / Intensity Outside with Dye Average / Intensity Outside with Dye 1 / Intensity Outside with Dye 2 / Intensity Outside with Dye 3: 10 μM dye; for Ratio of intensity inside:outside PGL-3 Condensates Average: average of two days; for Intensity Inside with Dye Average / Intensity Inside with Dye 1 / Intensity Inside with Dye 2 / Intensity Inside with Dye 3 / Intensity Inside Dye-No Dye: inside PGL-3 condensate; for Intensity Inside with Dye Average / Intensity Inside with Dye 1 / Intensity Inside with Dye 2 / Intensity Inside with Dye 3 / Intensity Outside with Dye Average / Intensity Outside with Dye 1 / Intensity Outside with Dye 2 / Intensity Outside with Dye 3: 5 μM protein; for Intensity Inside with Dye Average / Intensity Outside with Dye Average: average of three images; for Intensity Inside with Dye Average / Intensity Inside with Dye 1 / Intensity Inside with Dye 2 / Intensity Inside with Dye 3 / Intensity Inside Dye-No Dye / Intensity Outside with Dye Average / Intensity Outside with Dye 1 / Intensity Outside with Dye 2 / Intensity Outside with Dye 3 / Intensity Outside (Dye-No Dye): one day of experiments; for Intensity Inside with Dye 1 / Intensity Outside with Dye 1: image 1; for Intensity Inside with Dye 2 / Intensity Outside with Dye 2: image 2; for Intensity Inside with Dye 3 / Intensity Outside with Dye 3: image 3; for Intensity Inside Dye-No Dye / Intensity Outside (Dye-No Dye): background corrected; for Intensity Outside with Dye Average / Intensity Outside with Dye 1 / Intensity Outside with Dye 2 / Intensity Outside with Dye 3 / Intensity Outside (Dye-No Dye): outside PGL-3 condensate
T1 sequence (G5EBV6 1-693): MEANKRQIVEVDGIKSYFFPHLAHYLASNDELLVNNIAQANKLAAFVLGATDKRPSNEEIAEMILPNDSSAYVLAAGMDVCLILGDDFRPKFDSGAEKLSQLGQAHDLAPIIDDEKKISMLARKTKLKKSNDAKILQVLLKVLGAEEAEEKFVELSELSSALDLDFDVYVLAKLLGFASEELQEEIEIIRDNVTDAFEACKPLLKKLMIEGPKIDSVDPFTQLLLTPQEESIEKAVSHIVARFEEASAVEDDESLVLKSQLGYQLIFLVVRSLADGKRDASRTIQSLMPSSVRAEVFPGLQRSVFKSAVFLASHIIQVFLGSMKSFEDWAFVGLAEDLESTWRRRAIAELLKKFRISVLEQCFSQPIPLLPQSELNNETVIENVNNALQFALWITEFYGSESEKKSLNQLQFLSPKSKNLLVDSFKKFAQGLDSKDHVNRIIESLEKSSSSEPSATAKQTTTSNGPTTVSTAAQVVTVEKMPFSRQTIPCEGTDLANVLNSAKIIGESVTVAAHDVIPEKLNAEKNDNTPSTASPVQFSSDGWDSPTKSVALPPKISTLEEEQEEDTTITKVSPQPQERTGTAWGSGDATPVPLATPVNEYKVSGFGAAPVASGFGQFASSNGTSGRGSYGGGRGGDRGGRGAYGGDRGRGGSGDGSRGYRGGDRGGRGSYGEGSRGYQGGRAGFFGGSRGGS
Description: (§1) All dye-stocks were stored as 1 mM solutions in 100% DMSO. The dyes were dissolved in dilution buffer (DB: 14.7 mM Tris, pH 7.25, 1 mM DTT) to yield 11.765 μM dye in 1.1765 DMSO. 17 μl of dye was distributed in a 384 well non-binding plate (Greiner).
(§2) Either SNAP-tagged FUS protein or tag-free PGL-3 protein was thawed at room temperature for at least 10 min, and the buffer was exchanged to partitioning buffer (PB: 50 mM Tris pH 7.25, 500 mM KCl, 5% Glycerol, and 1 mM DTT). The protein was then diluted to 33.3 μM in PB. 3 μl of protein solution were added to the 384 well plate to initiate phase separation, yielding 20 μl of 5 μM protein and 10 μM dye in 75 mM KCl, 0.75% Glycerol, 20 mM Tris, 1 mM DTT, and 1% DMSO or for no dye control reactions, 20 μl of 5 μM protein in 75 mM KCl, 0.75% Glycerol, 20 mM Tris, 1 mM DTT.
(§3) A spinning disk confocal microscope was used to acquire images of the samples. A 60×oil high-NA objective lens was used to capture the condensate droplets. The laser power was set to 20% and the exposure times were adjusted to the fluorescence emission intensity specific for each dye. Exposure times ranged from 1-1000 ms. Appropriate filter settings were used, matching the excitation and emission spectra of the respective dyes. Three images per well were taken. The background signal of protein droplets in the absence of dye was recorded for all applied imaging conditions.
(§4) Fluorescence intensity was measured inside one exemplary target condensate (Intensity inside, I-in) per image and in a region next to the exemplary target condensate (Intensity outside, I-out) by hand using the image analysis software Fiji. An example depicting the regions measured is shown FIG. 2A. Three I-in and three I-out values were measured in total for each dye in each experiment and were averaged. The measured I-in and I-out values for FUS-SNAP condensates on one day of experiments are shown in Table 2 and Table 3, respectively. The measured I-in and I-out values for PGL-3 condensates on one day of experiments are shown in Table 4 and Table 5, respectively. All values were background corrected, based on the background images (no dye controls) taken with the same microscope conditions.
(§5) The ratios of the average intensity measured in the target condensates and outside of the target condensates were calculated by dividing I-in by I-out, although dividing I-out by I-in could also have been used. The I-in:I-out ratios determined from the two different days of experiments were then averaged. The average I-in:I-out ratios for FUS-SNAP condensates are shown in FIG. 3 and the average I-in:I-out ratios for PGL-3 condensates are shown in FIG. 4. The standard deviation between the two experiments is represented by the error bars in FIG. 3 and FIG. 4.

[2] = biological target: T2, FUS-SNAP condensates (Homo sapiens, UniProt P35637); assay: Fluorescence imaging of dye partitioning in FUS-SNAP condensates (I-in, I-out); settings: for Ratio of intensity inside:outside FUS-SNAP Condensates Day 1 / Ratio of intensity inside:outside FUS-SNAP Condensates Day 2 / Ratio of intensity inside:outside FUS-SNAP Condensates Average: I-in:I-out; for Ratio of intensity inside:outside FUS-SNAP Condensates Day 1 / Ratio of intensity inside:outside FUS-SNAP Condensates Day 2 / Ratio of intensity inside:outside FUS-SNAP Condensates Average / Intensity Inside with Dye Average / Intensity Inside with Dye 1 / Intensity Inside with Dye 2 / Intensity Inside with Dye 3 / Intensity Outside with Dye Average / Intensity Outside with Dye 1 / Intensity Outside with Dye 2 / Intensity Outside with Dye 3: 10 μM dye; for Ratio of intensity inside:outside FUS-SNAP Condensates Average: average of two days; for Intensity Inside with Dye Average / Intensity Inside with Dye 1 / Intensity Inside with Dye 2 / Intensity Inside with Dye 3 / Intensity Inside Dye-No Dye: inside FUS-SNAP condensate; for Intensity Inside with Dye Average / Intensity Inside with Dye 1 / Intensity Inside with Dye 2 / Intensity Inside with Dye 3 / Intensity Outside with Dye Average / Intensity Outside with Dye 1 / Intensity Outside with Dye 2 / Intensity Outside with Dye 3: 5 μM protein; for Intensity Inside with Dye Average / Intensity Outside with Dye Average: average of three images; for Intensity Inside with Dye Average / Intensity Inside with Dye 1 / Intensity Inside with Dye 2 / Intensity Inside with Dye 3 / Intensity Inside Dye-No Dye / Intensity Outside with Dye Average / Intensity Outside with Dye 1 / Intensity Outside with Dye 2 / Intensity Outside with Dye 3 / Intensity Outside (Dye-No Dye): one day of experiments; for Intensity Inside with Dye 1 / Intensity Outside with Dye 1: image 1; for Intensity Inside with Dye 2 / Intensity Outside with Dye 2: image 2; for Intensity Inside with Dye 3 / Intensity Outside with Dye 3: image 3; for Intensity Inside Dye-No Dye / Intensity Outside (Dye-No Dye): background corrected; for Intensity Outside with Dye Average / Intensity Outside with Dye 1 / Intensity Outside with Dye 2 / Intensity Outside with Dye 3 / Intensity Outside (Dye-No Dye): outside FUS-SNAP condensate
T2 sequence (P35637 1-526): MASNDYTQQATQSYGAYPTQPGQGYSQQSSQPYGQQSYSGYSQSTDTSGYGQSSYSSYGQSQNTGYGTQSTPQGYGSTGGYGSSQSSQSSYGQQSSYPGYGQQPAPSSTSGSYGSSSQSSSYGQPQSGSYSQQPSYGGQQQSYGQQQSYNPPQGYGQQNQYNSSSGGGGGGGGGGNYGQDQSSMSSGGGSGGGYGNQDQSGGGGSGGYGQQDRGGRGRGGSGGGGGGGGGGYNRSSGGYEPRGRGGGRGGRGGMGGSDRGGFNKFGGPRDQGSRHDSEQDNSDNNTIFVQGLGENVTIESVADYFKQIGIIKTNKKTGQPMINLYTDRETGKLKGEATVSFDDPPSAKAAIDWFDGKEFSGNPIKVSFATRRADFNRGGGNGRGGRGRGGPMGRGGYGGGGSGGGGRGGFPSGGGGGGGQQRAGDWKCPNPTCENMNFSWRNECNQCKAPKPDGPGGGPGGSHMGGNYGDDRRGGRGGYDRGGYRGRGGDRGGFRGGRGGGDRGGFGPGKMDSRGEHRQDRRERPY
Description: as §1, §2, §3, §4, §5

[3] = tested on: FUS-SNAP condensates versus PGL-3 condensates; assay: Condensate preference: ratio of FUS-SNAP I-in:I-out to PGL-3 I-in:I-out; settings: average FUS-SNAP I-in:I-out divided by average PGL-3 I-in:I-out
Description: as §5

Row | Molecule | Ratio of intensity inside:outside PGL-3 Condensates Day 1 [1] | Ratio of intensity inside:outside PGL-3 Condensates Day 2 [1] | Ratio of intensity inside:outside PGL-3 Condensates Average [1] | Intensity Inside with Dye Average [1] | Intensity Inside with Dye 1 [1] | Intensity Inside with Dye 2 [1] | Intensity Inside with Dye 3 [1] | Intensity Inside Dye-No Dye [1] | Intensity Outside with Dye Average [1] | Intensity Outside with Dye 1 [1] | Intensity Outside with Dye 2 [1] | Intensity Outside with Dye 3 [1] | Intensity Outside (Dye-No Dye) [1] | Ratio of intensity inside:outside FUS-SNAP Condensates Day 1 [2] | Ratio of intensity inside:outside FUS-SNAP Condensates Day 2 [2] | Ratio of intensity inside:outside FUS-SNAP Condensates Average [2] | Intensity Inside with Dye Average [2] | Intensity Inside with Dye 1 [2] | Intensity Inside with Dye 2 [2] | Intensity Inside with Dye 3 [2] | further results
1 | N=C(N)c1ccc(-c2cc3ccc(C(=N)N)cc3[nH]2)cc1 [Dye 1, DAPI] | 1.9 | 3.3 | 2.6 | 212.6 | 211.3 | 211.0 | 215.7 | 91.9 | 168.8 | 173.1 | 168.4 | 164.9 | 48.4 | 4.6 | 3.3 | 4.0 | 622.4 | 638.5 | 599.9 | 628.8 | Intensity Inside Dye-No Dye [2]: 502.4; Intensity Outside with Dye Average [2]: 228.6; Intensity Outside with Dye 1 [2]: 233.9; Intensity Outside with Dye 2 [2]: 233.3; Intensity Outside with Dye 3 [2]: 218.7; Intensity Outside (Dye-No Dye) [2]: 108.6; Ratio of FUS-SNAP:PGL-3 [3]: 1.5
2 | O=C(CCCC[C@@H]1SCC2NC(=O)NC21)NCCNC(=O)c1ccc(-c2c3ccc(=O)cc-3oc3ccc(O)cc23)c(C(=O)O)c1 (stereo partly shown) [Dye 13, Biotin-4-Fluorescein] | 1.1 | 1.1 | 1.1 | 3038.9 | 2939.4 | 3141.8 | 3035.4 | 2892.4 | 2837.5 | 2781.8 | 2905.7 | 2825.1 | 2732.2 | 2.1 | 2.1 | 2.1 | 4669.4 | 4600.2 | 4189.8 | 5218.3 | Intensity Inside Dye-No Dye [2]: 4534.2; Intensity Outside with Dye Average [2]: 2242.3; Intensity Outside with Dye 1 [2]: 2286.6; Intensity Outside with Dye 2 [2]: 2244.6; Intensity Outside with Dye 3 [2]: 2195.6; Intensity Outside (Dye-No Dye) [2]: 2138.2; Ratio of FUS-SNAP:PGL-3 [3]: 2.0
3 | Polysucrose 40-fluorescein isothiocyanate conjugate [Dye 10] | 1.0 | 0.9 | 0.9 | 5674.9 | 5747.5 | 6281.4 | 4996.0 | 5528.4 | 5893.8 | 5900.4 | 6581.6 | 5199.5 | 5788.5 | 1.0 | 1.1 | 1.1 | 5756.6 | 6139.7 | 6105.5 | 5024.6 | Enrichment of dye in the condensate (fluorescent images) ([2]; FIG. 1, exemplary images of Example 2, condensate type not stated): not enriched in the condensate; Intensity Inside Dye-No Dye [2]: 5621.4; Intensity Outside with Dye Average [2]: 5505.3; Intensity Outside with Dye 1 [2]: 5878.5; Intensity Outside with Dye 2 [2]: 5846.2; Intensity Outside with Dye 3 [2]: 4791.0; Intensity Outside (Dye-No Dye) [2]: 5401.2; Ratio of FUS-SNAP:PGL-3 [3]: 1.1
